According to patent US20060281719A1, “Oestrogen-17-sulphamates as inhibitors of steroid sulphatase” (priority 2000, published 2006):
Values joined by “and” are separate entries in the source; they are usually repeats but may differ in a detail not shown here. Equal entries are not always repeated. Where two headings read alike, the source gives them in different places.

Tests used:
[1] = Plate assay % inhibition; type: cell-based; conditions: -ve % means stimulation
[2] = target: T1, oestrone sulphatase (E1-STS) (Homo sapiens, UniProt P08842); assay: Inhibition of steroid sulphatase activity in placental microsomes; type: biochemical; design: from tissue; host or cells: human term placenta (microsomal preparation); conditions: for inhibition at 0.01 µM / inhibition at 1 µM: read-out: Placental Microcsomes % inhibition
T1 sequence (P08842 22-583): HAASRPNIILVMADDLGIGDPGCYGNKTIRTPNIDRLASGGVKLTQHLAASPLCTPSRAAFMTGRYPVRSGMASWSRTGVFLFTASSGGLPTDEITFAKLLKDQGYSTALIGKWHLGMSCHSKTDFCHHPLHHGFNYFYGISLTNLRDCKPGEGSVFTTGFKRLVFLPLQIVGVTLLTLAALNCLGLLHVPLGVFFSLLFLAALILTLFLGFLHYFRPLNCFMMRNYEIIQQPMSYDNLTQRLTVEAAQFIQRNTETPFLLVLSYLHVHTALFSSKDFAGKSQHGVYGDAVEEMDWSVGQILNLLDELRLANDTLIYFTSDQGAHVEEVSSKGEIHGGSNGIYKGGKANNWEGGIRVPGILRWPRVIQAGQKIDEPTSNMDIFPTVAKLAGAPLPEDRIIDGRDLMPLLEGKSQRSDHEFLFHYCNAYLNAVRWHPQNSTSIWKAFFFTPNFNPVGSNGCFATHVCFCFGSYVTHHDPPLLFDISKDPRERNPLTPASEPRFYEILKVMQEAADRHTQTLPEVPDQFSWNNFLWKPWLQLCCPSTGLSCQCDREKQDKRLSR
Description: Inhibition of Steroid Sulphatase Activity in Placental Microsomes
Sulphatase-positive human placenta from normal term pregnancies are thoroughly minced with scissors and washed once with cold phosphate buffer (pH 7.4, 50 mM) then re-suspended in cold phosphate buffer (5 ml/g tissue). Homogenisation is accomplished with an Ultra-Turrax homogeniser, using three 10 second bursts separated by 2 minute cooling periods in ice. Nuclei and cell debris are removed by centrifuging (4° C.) at 2000 g for 30 minutes and portions (2 ml) of the supernatant are stored at 20° C.
Incubations (1 ml) are carried out using a protein concentration of 100 mg/ml, substrate concentration of 20 mM [6,7-3H]oestrone-3-sulphate (specific activity 60 Ci/mmol from New England Nuclear, Boston, Mass., U.S.A.) and an incubation time of 20 minutes at 37° C. If necessary eight concentrations of compounds are employed: 0 (i.e. control); 0.05 mM; 0.1 mM; 0.2 mM; 0.4 mM; 0.6 mM; 0.8 mM; 1.0 mM. After incubation each sample is cooled and the medium (1 ml) was pipetted into separate tubes containing [14C]oestrone (7×10^3 dpm) (specific activity 97 Ci/mmol from Amersham International Radiochemical Centre, Amersham, U.K.). The mixture is shaken thoroughly for 30 seconds with toluene (5 ml). […] A portion (2 ml) of the organic phase was removed, evaporated and the 3H and 14C content of the residue determined by scintillation spectrometry. The mass of oestrone-3-sulphate hydrolysed is calculated from the 3H counts obtained (corrected for the volumes of the medium and organic phase used, and for recovery of [14C]oestrone added) and the specific activity of the substrate.

**Q.** Which melting point does the source give for `CN(C)S(=O)(=O)O[C@@H]1CCC2C3CCc4cc(OCc5ccccc5)ccc4C3CC[C@@]21C` (stereo partly drawn) here?
**A.** 82 to 86 °C (dec.)

**Q.** With `CC1=C2CCC3c4ccc(OS(N)(=O)=O)cc4CCC3C2CC1` (stereo not drawn) as the molecule, how does the melting point read?
**A.** 172 to 176 °C

**Q.** With `C[C@]12CCC3c4ccc(OCc5ccccc5)cc4CCC3C1CC[C@@H]2OS(N)(=O)=O` (stereo partly drawn) as the molecule, how does the melting point read?
**A.** 108 to 109 °C

**Q.** Which melting point does the source give for `C[C@]12CCC3c4ccc(OCc5ccccc5)cc4CCC3C1CC[C@H]2OS(N)(=O)=O` (stereo partly drawn) here?
**A.** 91 to 93 °C

**Q.** For `C[C@]12CCC3c4ccc(OCc5ccccc5)cc4CCC3C1CC[C@H]2OS(=O)(=O)N(Cc1ccccc1)Cc1ccccc1` (stereo partly drawn), which melting point is on record?
**A.** 115 to 116 °C

**Q.** For `CN(C)S(=O)(=O)O[C@H]1CCC2C3CCc4cc(OCc5ccccc5)ccc4C3CC[C@@]21C` (stereo partly drawn), which melting point is on record?
**A.** 117 to 121 °C

**Q.** With `CC1=C2CCC3c4ccc(OS(N)(=O)=O)cc4CCC3C2CC1` (stereo not drawn) [BLE00086] as the molecule, how does the inhibition at 0.1 µM ([1]; 0.1 μM) read?
**A.** 8%

**Q.** What about the inhibition at 1 µM ([1]; 1 μM) of the same molecule?
**A.** 3%

**Q.** And the inhibition at 10 µM [1]?
**A.** 14%

**Q.** With `COc1cc2c(cc1O)CCC1C2CC[C@@]2(C)C1CC[C@@]2(O)Cc1ccc(C(C)(C)C)cc1` (stereo partly drawn) [BLE01008] as the molecule, how does the “Plate assay % inhibition” value ([1]; 0.1 μM) read?
**A.** −12%

**Q.** What about the “Plate assay % inhibition” value ([1]; 1 μM) of the same molecule?
**A.** −15%

**Q.** For `COc1cc2c(cc1O)CCC1C2CC[C@@]2(C)C1CC[C@@]2(O)Cc1ccccc1` (stereo partly drawn) [BLE01014], which “Plate assay % inhibition” value ([1]; 0.1 μM) is on record?
**A.** −14%

**Q.** What about the “Plate assay % inhibition” value ([1]; 1 μM) of the same molecule?
**A.** −14%

**Q.** What does the source list for `COc1cc2c(cc1OS(N)(=O)=O)CCC1C2CCC2(C)C1CCC2(O)Cc1ccc(C(C)(C)C)cc1` (stereo not drawn) [BLE01016]?
**A.** inhibition at 0.1 µM ([1]; 0.1 μM): -14%; inhibition at 1 µM ([1]; 1 μM): -10%; inhibition at 10 µM [1]: -3%

**Q.** For `COc1cc2c(cc1OS(N)(=O)=O)CCC1C2CCC2(C)C1CCC2(O)Cc1ccccc1` (stereo not drawn) [BLE01018], which inhibition at 0.1 µM ([1]; 0.1 μM) is on record?
**A.** -19%

**Q.** What about the inhibition at 1 µM ([1]; 1 μM) of the same molecule?
**A.** -12%

**Q.** What does the source list for `CC12CCC3c4ccc(OS(N)(=O)=O)cc4CCC3C1CCC2OS(N)(=O)=O` (stereo not drawn) [BLE99031B]?
**A.** inhibition at 0.1 µM ([1]; 0.1 μM): 7%; inhibition at 1 µM ([1]; 1 μM): 12%; inhibition at 10 µM [1]: 32%

**Q.** With `CC(=O)NS(=O)(=O)O[C@H]1CCC2C3CCc4cc(O)ccc4C3CC[C@@]21C` (stereo partly drawn) [BLE99058, 3-Hydroxyestra-1,3,5(10)-trien-17β-O-(N-acetyl)sulfamate] as the molecule, how does the inhibition at 0.01 µM ([2]; 10 nM, -ve % means stimulation) read?
**A.** 0.9%

**Q.** And the inhibition at 1 µM ([2]; 1 μM, -ve % means stimulation)?
**A.** 7.8%

**Q.** What about the melting point of the same molecule?
**A.** 130 to 134 °C (dec.)

**Q.** Which inhibition at 0.01 µM ([2]; 10 nM, -ve % means stimulation) does the source give for `C[C@]12CCC3c4ccc(O)cc4CCC3C1CC[C@@H]2OS(=O)(=O)N(Cc1ccccc1)Cc1ccccc1` (stereo partly drawn) [BLE99060, 3-Hydroxyestra-1,3,5(10)-trien-17β-O—(N,N-dibenzyl)sulfamate] here?
**A.** -3.2%

**Q.** What about the inhibition at 1 µM ([2]; 1 μM, -ve % means stimulation) of the same molecule?
**A.** 1.36%

**Q.** And the melting point?
**A.** 60 to 63 °C

**Q.** Which inhibition at 0.01 µM ([2]; 10 nM, -ve % means stimulation) does the source give for `C[C@]12CCC3c4ccc(OS(N)(=O)=O)cc4CCC3C1CC[C@@H]2OS(=O)(=O)N(Cc1ccccc1)Cc1ccccc1` (stereo partly drawn) [BLE99063, 3-O-Sulfamoyl-estra-1,3,5(10)-trien-17β-O—(N,N-dibenzyl)sulfamate] here?
**A.** -1.9%

**Q.** What about the inhibition at 1 µM ([2]; 1 μM, -ve % means stimulation) of the same molecule?
**A.** 38.2%

**Q.** And the melting point?
**A.** 60 to 64 °C and 58 to 62 °C

**Q.** What does the source list for `C[C@]12CCC3c4ccc(OS(N)(=O)=O)cc4CCC3C1CC[C@H]2OS(=O)(=O)N(Cc1ccccc1)Cc1ccccc1` (stereo partly drawn) [BLE99068, 3-O-Sulfamoyl-estra-1,3,5(10)-trien-17α-O—(N,N-dibenzyl)sulfamate]?
**A.** inhibition at 0.01 µM ([2]; 10 nM, -ve % means stimulation): 4.9%; inhibition at 1 µM ([2]; 1 μM, -ve % means stimulation): 58.2%; inhibition at 0.1 µM ([1]; 0.1 μM): -18%; inhibition at 1 µM ([1]; 1 μM): -1%; inhibition at 10 µM [1]: 19%

**Q.** With `CN(C)S(=O)(=O)O[C@H]1CC[C@H]2[C@@H]3CCc4cc(OS(N)(=O)=O)ccc4[C@H]3CC[C@]12C` [BLE99069, 3-O-Sulfamoyl-estra-1,3,5(10)-trien-17β-O—(N,N-dimethyl)sulfamate] as the molecule, how does the “Placental Microcsomes % inhibition” value ([2]; 10 nM, -ve % means stimulation) read?
**A.** 30.3^1%

**Q.** And the “Placental Microcsomes % inhibition” value ([2]; 1 μM, -ve % means stimulation)?
**A.** 96.3^1%

**Q.** What about the “Plate assay % inhibition” value ([1]; 0.1 μM) of the same molecule?
**A.** 3%

**Q.** And the “Plate assay % inhibition” value ([1]; 1 μM)?
**A.** 10%

**Q.** What does the source list for `CCCCCN(CCCCC)S(=O)(=O)O[C@H]1CCC2C3CCc4cc(O)ccc4C3CC[C@@]21C` (stereo partly drawn) [BLE99073, 3-Hydroxyestra-1,3,5(10)-trien-17β-O—(N,N-dipentyl)sulfamate]?
**A.** inhibition at 0.01 µM [2]: 1.2%; inhibition at 1 µM [2]: -11.8%; melting point: 93 to 96 °C
